Tests used:
[1] = Body weight and fasted plasma metabolic parameters of ApoE-deficient mice fed high-fat diet with or without ABA; format: in vivo
Description: Five-week old ApoE −/− mice (n=40) were housed at the animal facilities at Virginia Polytechnic Institute and State University in a room maintained at 75° F., with a 12:12 h light-dark cycle starting from 6:00 AM. All experimental procedures were approved by the Institutional Animal Care and Use Committee of Virginia Polytechnic Institute and State University and met or exceeded requirements of the Public Health Service/National Institutes of Health and the Animal Welfare Act. Mice were fed a high saturated fat (AIN-93G-based) diet containing 19.6% fat and 0.2% total cholesterol and obtaining 40.1% of Kcal from fat (4.4 Kcal/g) with or without 100 mg/kg of a racemic ABA mixture (Guri et al., J. Nutr. Biochem. 19:216-28, 2008). Systolic blood pressure was assessed on days 0, 28, 56, and 72. On day 84, fasted mice (12 h) were sacrificed by carbon dioxide asphyxiation and blood was withdrawn through cardiac puncture. Glucose concentrations of whole blood were assessed with an Accu-Chek® Glucometer (Roche, Indianapolis, Ind.) and plasma insulin was measured through insulin ELISA (Millipore, Billerica, Mass.). Aortas were collected for analysis of immune cell infiltration, histological evaluation of atherosclerotic lesions, and gene expression analyses.
Plasma cholesterol and triglyceride levels were measured using kits from Raichem (San Diego, Calif.) adapted for microtiter plate assays. Plasma free fatty acids were measured using the NEFA-HR(2) kit from Wako. Fast performance liquid chromatography (FPLC) separation of plasma lipoproteins was performed on a Superose 6 column using buffer containing 0.15M NaCl, 0.01M Na2HPO4 and 1 mM EDTA at a flow rate of 0.5 ml/min. Forty 0.5 ml fractions were collected and cholesterol was measured in fractions 10-40. Fractions 15-20 contain VLDL, fractions 21-27 contain LDL and fractions 28-34 contain HDL.

db/db mice = conditions: Guri et al., cited from earlier work
[2] = system: endothelial nitric oxide synthase (eNOS); experiment: Aortic gene expression by real-time RT-PCR: eNOS; format: in vivo, mice; conditions: day 84, ratio to β-actin
Description: FIG. 4 are photos and graphs showing aortas collected on day 84 of dietary intervention. Representative photomicrographs (100×) of aortic root specimens from (A) control and (B) ABA-fed mice. (C) Analysis of lumenal areas and (D) tunica media areas were performed with aortic cross-sections using Image Pro Plus software. (E) Aortic thickness was analyzed as a ratio of the intima to the media. Gene expression in the aorta of (F) endothelial nitric oxide synthase (eNOS) and (G) 15-lipoxygenase (15-LOX) were measured as a ratio to the house-keeping gene β-actin. Data were analyzed as a completely randomized design.
Total RNA was isolated from aortas using the RNA isolation Minikit (Qiagen) according to the manufacturer's instructions. Total RNA (1 μg) was used to generate a complementary DNA (cDNA) template using the iScript cDNA Synthesis Kit (Bio-Rad, Hercules, Calif.). […] Each gene amplicon was purified with the MiniElute PCR Purification Kit (Qiagen) and quantitated on an agarose gel by using a DNA mass ladder (Promega). […]
Complementary DNA (cDNA) concentrations for genes of interest were examined by real-time quantitative PCR using an iCycler IQ System and the iQ SYBR green supermix (Bio-Rad). […] Results are presented as a starting quantity of target cDNA (picograms) per microgram of total RNA. […]

pancreatic β-cells = conditions: Bruzzone et al., 2008; cited from earlier work
[3] = ApoE-deficient mice, high-fat diet, 84 days
[4] = fasted plasma, day 84, ABA 100 mg/kg diet, least square mean ± standard error
[5] = fasted plasma, day 84, ABA 100 mg/kg diet, least square mean ± standard error, * P<0.05 vs control

## CC1=CC(=O)CC(C)(C)C1(O)/C=C/C(C)=C\C(=O)O (racemic) [ABA, abscisic acid]
[1]; ApoE-deficient mice, high-fat diet with ABA 100 mg/kg, day 84, least square mean ± standard error
  Body Weight: 30.8 ± 0.63 g
[1]; [3]
  Effect on body weights vs control diet: no significant effect
  Effect on insulin vs control diet: no significant effect
  Effect on plasma glucose vs control diet: no significant effect
  Effect on plasma non-esterified fatty acid concentration vs control diet: significantly raise
  Effect on plasma triglyceride (TG) concentration vs control diet: significantly raise
  Effect on total cholesterol levels vs control diet: no significant effect
[1]; fasted (12 h), day 84, ABA 100 mg/kg diet, least square mean ± standard error
  Glucose: 194.6 ± 11.9 mg/dL
[1]; [4]
  Cholesterol: 339.0 ± 25.1 mg/dL
  Insulin: 0.432 ± 0.05 ng/mL
[1]; [5]
  NEFAs (non-esterified fatty acids): 2.05 ± 0.17* mequiv./mL
  TGs (triglycerides): 136.1 ± 12.3* mg/dL
[1]; fasted, day 84, ABA 100 mg/kg diet, least square mean ± standard error
  HOMA-IR (homeostasis model assessment-insulin resistance): 4.93 ± 0.76
db/db mice; db/db mice, 2007 and 2008
  Glucose tolerance: improved glucose tolerance
db/db mice; obese db/db mice, 2008
  Macrophage infiltration into white adipose tissue: significantly reduces macrophage infiltration
  Reduction in MCP-1 expression in the adipose tissue stromal-vascular fraction: approximately 15 fold
[2]
  Aortic expression of eNOS mRNA vs control: significantly elevated
Pancreatic β-cells
  Intracellular levels of cAMP: increases intracellular levels of cAMP

From patent US20110054033A1, “METHODS OF USING ABSCISIC ACID FOR AMELIORATING HYPERTENSION AND VASCULAR INFLAMMATION” (Virginia Tech Intellectual Properties, Inc., priority 2009, published 2011)
